From paper PMC2010280 (British Journal of Cancer, 1980)

How the values were obtained:
[1] = tested on: P388 leukaemic spleen colony-forming-units(LCFU-S); experiment: Mouse spleen-colony assay (P388 leukaemia, femoral marrow LCFU-S); assay type: in vivo, male DBA/2 mice; conditions: 8 u/kg/day for 6 days (Day 1-6); 10^6 P388 cells i.v. on Day 0; osmotic minipump vs daily i.p. bolus; groups of 5 mice
From the text: MATERIALS AND METHODS Mice.-6-8-week-old male DBA/2 mice weighing 20-25 g were purchased from the Jackson Laboratory, Bar Harbor, Maine. They were maintained on normal laboratory chow and acid water ad. lib. Mouse leukaemia.-P388 lymphocytic leu- kaemia was supplied by Dr Daniel Griswold, Southern Research Institute, Birmingham, Alabama, and serially transplanted as ain ascites tumour at weekly intervals ([…] every 7 days in McCoy's 5a medium. Gibco, Grant Island, NY). […] Ill addition to an un- treated control group, 5 animals were implanted with minipumps containing 0.900 NaCl. Seven days after cell injection, the mice of the untreated control and treated groups were killed, femurs isolated, and marrow cells washed out with McCoy's 5a medium. Appro- priate dilutions of the leukaemic femoral marrow cells were injected i.v. into groups of 10 DBA/2 mice. Eight days later, the recipient mice were killed, spleens removed and fixed in Bouin's solution. The number of surface nacroscopic, leukaemic colony-forming units (LCFU-S) were counted with a dissecting microscope, and the fraction of surviving LCFU per femur determined. Pharmacokinetic studies.-On Day 0, 106 P388 ascites cells were injected i.v. into groups of 30 DBA/2 mice. […] For the C.i.p. group, blood samples from at least 3 mice were col- lected in heparinized tubes by heart puncture every day for 6 days. […]

[2] = From the text: MATERIALS AND METHODS Mice.-6-8-week-old male DBA/2 mice weighing 20-25 g were purchased from the Jackson Laboratory, Bar Harbor, Maine. They were maintained on normal laboratory chow and acid water ad. lib. Mouse leukaemia.-P388 lymphocytic leu- kaemia was supplied by Dr Daniel Griswold, Southern Research Institute, Birmingham, Alabama, and serially transplanted as ain ascites tumour at weekly intervals ([…] every 7 days in McCoy's 5a medium. Gibco, Grant Island, NY). […] Ill addition to an un- treated control group, 5 animals were implanted with minipumps containing 0.900 NaCl. Seven days after cell injection, the mice of the untreated control and treated groups were killed, femurs isolated, and marrow cells washed out with McCoy's 5a medium. Appro- priate dilutions of the leukaemic femoral marrow cells were injected i.v. into groups of 10 DBA/2 mice. Eight days later, the recipient mice were killed, spleens removed and fixed in Bouin's solution. The number of surface nacroscopic, leukaemic colony-forming units (LCFU-S) were counted with a dissecting microscope, and the fraction of surviving LCFU per femur determined. Pharmacokinetic studies.-On Day 0, 106 P388 ascites cells were injected i.v. into groups of 30 DBA/2 mice. […] For the C.i.p. group, blood samples from at least 3 mice were col- lected in heparinized tubes by heart puncture every day for 6 days. […] At least 3 mice were killed at each sampling time. Blood samples were centrifuged at 2,000 rev/min and 4?C for 10 min and the plasmas separated and immediately stored at -20?C. […] Data analysis-Statistical analysis of the differences betwNeen LCFU dose-response (i.e., drug dose vs fraction of CFU surviving per femur) curves for the two different treat- ments used the analysis of covariance method (Snedecor & Cochran, 1979). […] I. Intravenous administration. Cancer Chemother. Pharmacol., 1, 177. […] II. Intra- cavitary administration. Cancer Chemother. Pharmacol., 2, 127. BAKER, L. H., OPIPARI, M. I., WILSON, H., BOTTOMLEY, R. & COLTMAN, C. A., JR. […] Obstet. Gynecol., 52, 146. BARRANCO, S. C. […] Ed. Carter, Crooke & Umezawa. New York: Academic Press. p. […] Cancer Res., 36, 1418. MELLETT, L. B. (1973) Considerations in design of optimal therapeutic schedules, Pharmacology and the Future of Man. In Problems of Therapy, Vol. 3. Ed. Okita & Acheson. Basel: S. Karger. p. 332. METZLER, C. M. (1969) Technical Report 7292/69/ 7292/005. […] Proc. AACR and ASCO, 20, 202. […] Eds. Carter, Crooke & Umezawa. New York: Academic Press. p. 117. […] Cancer Treat. Rep., 62, 2011. SKIPPER, H. E., SCHABEL, F. M., JR & WILCOX, W. S. (1967) Experimental evaluation of potential anticancer agents. XXI. Scheduling of arabinosyl cytosine to take advantage of its S-phase speci- ficity against leukaemia cells. Cancer Chemother Rep., 51, 125. […]
[3] = Bleomycin stability in the Alzet osmotic minipump; conditions: in 0.9% NaCl, 37 C, for at least 6 days (determined for 7 days in saline)

With bleomycin the “greater reduction of LCFU-S by continuous i.p. infusion than by intermittent i.p. bolus at identical dose” value [1] was 0.5 log, the “period during which plasma concentrations greater than 0.6 mu/ml are maintained” value ([2]; after continuous i.p. infusion (C.i.p.), 8 u/kg/day) was “about 6 days” and the “period during which bleomycin plasma concentration remains above 0.6 mu/ml” value ([2]; after intermittent i.p. bolus (I.i.p.) administration, 8 u/kg/day) was “about 92 min”. For the same substance, the “constant bleomycin plasma level” value ([2]; continuous i.p. infusion (osmotic minipump), 8 u/kg/day for 6 days, P388-bearing mice, radioimmunoassay, pooled plasma of groups of 3 mice, daily samples) was 0.62 +/- 0.03 mu/ml, the “peak bleomycin plasma level” value ([2]; intermittent i.p. bolus, 8 u/kg/day, at 5 min after the dose, Day 5, radioimmunoassay) was 32 mu/ml and the “stability inside the osmotic minipump” value [3] was 100%.
